Source: PubChem BioAssay AID1963845 (Molecular Pharmacology Branch, DTP, NCI, 2024)

System: 429239-143-T-J1-PDC complex spheroid viability
Experiment: Anticancer human tumor 429239-143-T-J1-PDC patient-derived small cell lung carcinoma cell line growth inhibition [POLQ]
Details: for viability, T/C: stronger effect = lower value
Protocol: Multicellular complex tumor spheroid response to Polymerase (POL) inhibitors (novobiocin, ART-558, RP6685) in combination with a variety of drugs and investigational agents in selected tumor cell lines
The POL inhibitors (novobiocin, ART-558, and RP6685) were evaluated both individually and in combination with standard of care and investigational anticancer small molecules within a complex spheroid model of solid tumors. . Complex spheroids include a stromal component modeled by human endothelial cells (HUVEC) and fibroblasts modeled by human mesenchymal stem cells (MSCs). The concentration ranges selected for each drug and investigational agent were based upon clinically achievable concentrations if the clinical Cmax of the agent was known.
Compounds. The drugs and investigational agents: novobiocin (NSC847541), ART-558 (NSC835418), RP-6685 (NSC848927), peposertib (NSC802822), ceralasertib (NSC780249), elimusertib (NSC800525), camonsertib (NSC841442), AZD-1390 (NSC803789), olaparib (NSC753686), talazoparib (NSC767125), rucaparib (NSC756644), sotorasib (NSC818433), MRTX-1133 (NSC836407), SN-38 (NSC673596), topotecan (NSC609699), epotoside (NSC141540), doxorubicin (NSC123127), gemcitabine (NSC613327), 5-fluorouracil (NSC19893), paclitaxel (NSC125973), vemurafenib (NSC761431), MSA-2 (NSC828583), SN-011 (NSC837082), adavosertib (NSC754352), prexasertib (NSC758257), carboplatin (NSC241240) and oxaliplatin (NSC266046), were obtained from the National Cancer Institute (NCI) Developmental Therapeutics Program Chemical Repository (21). The FDA-approved anticancer drug set is available from the Developmental Therapeutics Program at https://dtp.cancer.gov/organization/dscb/obtaining/. […] The stock solutions were prepared in dimethyl sulfoxide (DMSO, Sigma-Aldrich, St. Louis, MO, cat. D2650), except for the platinum compounds which were prepared in saline (Quality Biological, Gaithersburg, MD, cat. 114-055-101), at 800-fold the tested concentration and stored at -70 degrees C prior to their use. All drugs and investigational agents were tested over a range starting from a high concentration at or near the clinical Cmax and decreasing in half-log increments. If the clinical Cmax for an agent had not been determined, the highest concentration tested was 10 microM, except for SN-38, which was tested at a high concentration of 1 microM.
Cell Culture. All cells were maintained in an incubator at 37 degrees C and 5% CO2 with 95% humidity. The PDC lines were cultured according to standard operating procedures established by the NCI PDMR (https://pdmr.cancer.gov). Table 3 of the manuscript, lists the cell lines along with the number of the three cell types plated to form the mct-spheroids and media for tumor cell growth. After thawing, all PDC lines, except 997537-175-T-J1-PDC and 415267-285-R-J2-PDC, were cultured in Matrigel-coated flasks prepared with a working solution of 1X Ham's F-12 nutrient mix, without supplementation (Thermo Fisher Scientific, cat. 11765054), 100 U/mL penicillin-streptomycin (Thermo Fisher Scientific, cat. 15140122), and 2.5% Matrigel (Corning Inc., Corning, NY, cat. 354248) for the first three passages. The two PDC lines 997537-175-T-J1-PDC and 415267-285-R-J2-PDC were cultured on uncoated flasks. The 857933-349-R-J2-PDC line was cultured in 6C/Colon 1B media containing advanced DMEM/F-12 (Thermo Fisher Scientific, cat. 12634028), 10 mM HEPES (Thermo Fisher Scientific, cat. 15630080), 1X GlutaMAX supplement (Thermo Fisher Scientific, cat. 35050061), 0.1 mg/mL primocin (InvivoGen, San Diego, CA, cat. ant-pm-2), 10% defined fetal bovine serum, heat inactivated (HyClone Laboratories Inc., Logan, UT, cat. SH30070.03HI), 50% L-WRN conditioned media (ATCC, cat. CRL-3276), 1.25 mM N-Acetyl-L-cysteine (Sigma-Aldrich, cat. A9165), 10 mM nicotinamide (Sigma-Aldrich, cat. N0636), 1X B-27 supplement (Thermo Fisher Scientific, cat. 17504044), 1X N-2 supplement (Thermo Fisher Scientific, cat. […]

[1] = curve of first compound, second compound 0.0316 µM
[2] = curve of first compound, second compound 0.1 µM
[3] = curve of first compound, second compound 0.316 µM
[4] = curve of first compound, second compound 1 µM
[5] = curve of first compound, second compound 3.16 µM
[6] = curve of first compound, second compound 10 µM
[7] = second compound 0.0316 µM, first compound 0.0316 µM
[8] = second compound 0.0316 µM, first compound 0.1 µM
[9] = second compound 0.0316 µM, first compound 0.316 µM
[10] = second compound 0.0316 µM, first compound 1 µM
[11] = second compound 0.0316 µM, first compound 3.16 µM
[12] = second compound 0.0316 µM, first compound 10 µM
[13] = second compound 0.1 µM, first compound 0.0316 µM
[14] = second compound 0.1 µM, first compound 0.1 µM
[15] = second compound 0.1 µM, first compound 0.316 µM
[16] = second compound 0.1 µM, first compound 1 µM
[17] = second compound 0.1 µM, first compound 3.16 µM
[18] = second compound 0.1 µM, first compound 10 µM
[19] = second compound 0.316 µM, first compound 0.0316 µM
[20] = second compound 0.316 µM, first compound 0.1 µM
[21] = second compound 0.316 µM, first compound 0.316 µM
[22] = second compound 0.316 µM, first compound 1 µM
[23] = second compound 0.316 µM, first compound 3.16 µM
[24] = second compound 0.316 µM, first compound 10 µM
[25] = second compound 1 µM, first compound 0.0316 µM
[26] = second compound 1 µM, first compound 0.1 µM
[27] = second compound 1 µM, first compound 0.316 µM
[28] = second compound 1 µM, first compound 1 µM
[29] = second compound 1 µM, first compound 3.16 µM
[30] = second compound 1 µM, first compound 10 µM
[31] = second compound 3.16 µM, first compound 0.0316 µM
[32] = second compound 3.16 µM, first compound 0.1 µM
[33] = second compound 3.16 µM, first compound 0.316 µM
[34] = second compound 3.16 µM, first compound 1 µM
[35] = second compound 3.16 µM, first compound 3.16 µM
[36] = second compound 3.16 µM, first compound 10 µM
[37] = second compound 10 µM, first compound 0.0316 µM
[38] = second compound 10 µM, first compound 0.1 µM
[39] = second compound 10 µM, first compound 0.316 µM
[40] = second compound 10 µM, first compound 1 µM
[41] = second compound 10 µM, first compound 3.16 µM
[42] = second compound 10 µM, first compound 10 µM
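Also: luminescence signal used as surrogate measure of viable cells; spheroids exposed to compounds for seven days before readout.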
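For viability, T/C in this document: 100% = DMSO vehicle control viability as luminescence relative to vehicle.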

## COc1cc(C2c3cc4c(cc3C(OC3OC5COC(C)OC5C(O)C3O)C3COC(=O)C23)OCO4)cc(OC)c1O (stereo not given) + Nc1ccc(C#CCN(C(=O)Cc2ncc(C(F)(F)F)cc2C(F)(F)F)c2ccc(F)cc2)nn1
[1]
  IC50: 506 nM
[2]
  IC50: 489 nM
[3]
  IC50: 514 nM
[4]
  IC50: 463 nM
[5]
  IC50: 486 nM
[6]
  IC50: 444 nM
[7]
  viability, T/C: 106%
[8]
  viability, T/C: 103%
[9]
  viability, T/C: 76.4%
[10]
  viability, T/C: 11.7%
[11]
  viability, T/C: 6.31%
[12]
  viability, T/C: 7.42%
[13]
  viability, T/C: 103%
[14]
  viability, T/C: 99.5%
[15]
  viability, T/C: 73%
[16]
  viability, T/C: 12%
[17]
  viability, T/C: 7.16%
[18]
  viability, T/C: 6.74%
[19]
  viability, T/C: 104%
[20]
  viability, T/C: 105%
[21]
  viability, T/C: 77.2%
[22]
  viability, T/C: 12.9%
[23]
  viability, T/C: 5.81%
[24]
  viability, T/C: 7.82%
[25]
  viability, T/C: 92.5%
[26]
  viability, T/C: 95.3%
[27]
  viability, T/C: 68.5%
[28]
  viability, T/C: 12.6%
[29]
  viability, T/C: 7.75%
[30]
  viability, T/C: 8.54%
[31]
  viability, T/C: 100%
[32]
  viability, T/C: 95.2%
[33]
  viability, T/C: 71.3%
[34]
  viability, T/C: 14.6%
[35]
  viability, T/C: 5.65%
[36]
  viability, T/C: 8.11%
[37]
  viability, T/C: 100%
[38]
  viability, T/C: 96.1%
[39]
  viability, T/C: 66.1%
[40]
  viability, T/C: 11.5%
[41]
  viability, T/C: 5.67%
[42]
  viability, T/C: 7.88%

## Nc1ccc(C#CCN(C(=O)Cc2ncc(C(F)(F)F)cc2C(F)(F)F)c2ccc(F)cc2)nn1
Compound 0.0316 µM
  viability, T/C: 100% [middle of 13 runs]
Compound 0.1 µM
  viability, T/C: 103% [middle of 13 runs]
Compound 0.316 µM
  viability, T/C: 99.6% [middle of 13 runs]
Compound 1 µM
  viability, T/C: 101% [middle of 13 runs]
Compound 10 µM
  viability, T/C: 107% [middle of 13 runs]
Compound alone, run of 01/19/2024
  IC50: > 10000 nM

## Nc1ccn(C2OC(CO)C(O)C2(F)F)c(=O)n1 (stereo not given) + Nc1ccc(C#CCN(C(=O)Cc2ncc(C(F)(F)F)cc2C(F)(F)F)c2ccc(F)cc2)nn1
[1]
  IC50: 49.4 nM
[2]
  IC50: 49.9 nM
[3]
  IC50: 48.3 nM
[4]
  IC50: 46.2 nM
[5]
  IC50: 47.6 nM
[6]
  IC50: 50.6 nM
[7]
  viability, T/C: 77.1%
[8]
  viability, T/C: 7.33%
[9]
  viability, T/C: 5.99%
[10]
  viability, T/C: 6.45%
[11]
  viability, T/C: 6.94%
[12]
  viability, T/C: 6.48%
[13]
  viability, T/C: 77.7%
[14]
  viability, T/C: 7.8%
[15]
  viability, T/C: 7.04%
[16]
  viability, T/C: 5.04%
[17]
  viability, T/C: 8.53%
[18]
  viability, T/C: 6.25%
[19]
  viability, T/C: 75%
[20]
  viability, T/C: 7.13%
[21]
  viability, T/C: 7.6%
[22]
  viability, T/C: 6.15%
[23]
  viability, T/C: 6.48%
[24]
  viability, T/C: 7.03%
[25]
  viability, T/C: 70.9%
[26]
  viability, T/C: 7.27%
[27]
  viability, T/C: 7.19%
[28]
  viability, T/C: 7.47%
[29]
  viability, T/C: 6.86%
[30]
  viability, T/C: 6.1%
[31]
  viability, T/C: 73.6%
[32]
  viability, T/C: 7.11%
[33]
  viability, T/C: 6.48%
[34]
  viability, T/C: 5.97%
[35]
  viability, T/C: 6.64%
[36]
  viability, T/C: 8.77%
[37]
  viability, T/C: 78%
[38]
  viability, T/C: 9.42%
[39]
  viability, T/C: 7.4%
[40]
  viability, T/C: 7.48%
[41]
  viability, T/C: 6.25%
[42]
  viability, T/C: 7%
